Experimental data from patent US20090137652A1, “METHODS FOR NEUROPROTECTION” (priority 2005, published 2009).
Where “and” joins values, the source holds several entries; their conditions need not be identical. Equal entries are not always repeated. Marks after values point to notes of the source that are not given here.

Key:
Assay type in all cases: in vivo, rat
[1] = system: rats subjected to Li-pilo induced SE; test: Quantification of cell densities after lithium-pilocarpine SE (Example 1); conditions: for cell loss, CA1 pyramidal layer: significant vs pilo-DZP
Experimental: The effects of increasing doses of the test compound were studied on 3 groups of rats. The animals of the first group received 10 mg/kg of the test compound, i.p., 1 h after the onset of SE (pilo-TC10) while the animals of groups 2 and 3 received 30 and 60 mg/kg of the test compound (pilo-TC30 and pilo-TC60), respectively.
Another group was injected with 2 mg/kg diazepam (DZP, i.m.) at 1 h after the onset of SE. This is a standard treatment to improve animals survival after SE (pilo-DZP). The control group received saline instead of pilocarpine and the test compound (saline-saline). The pilo-test compound rats surviving SE were then injected about 10 h after the first test compound injection with a second i.p. injection of the same dose of the test compound and were maintained under a twice daily treatment with the test compound for 6 additional days. Pilo-DZP received a second injection of 1 mg/kg DZP on the day of SE at about 10 h after the first one. Thereafter, Pilo-DZP and saline-saline rats received twice daily an equivalent volume of saline.
Quantification of cell densities was performed at […] after SE on 8 pilo-DZP, 8 pilo-TC10, 7 pilo-TC30, 7 pilo-TC60, and 6 saline-saline rats. At 14 days after SE, animals were deeply anesthetized with […] pentobarbital (Dolethal®, Vetoquinol, Lure, France. Brains were then removed and frozen. Serial 20 μm slices were cut in a cryostat, air-dried during several days before thionine staining.
Quantification of cell densities was performed with a 10×10 boxes 1 cm^2 microscopic grid on coronal sections according to the stereotaxic coordinates of the rat brain atlas (Paxinos and Watson, 1986, The Rat brain in Stereotaxic Coordinates, 2nd ed. Academic Press, San Diego). Cell counts were performed twice in a blind manner and were the average of at least 3 values from 2 adjacent sections in each individual animal. Counts involved only cells larger than 10 μm, smaller ones being considered as glial cells.
For the comparison of the characteristics of SE in pilo-saline and pilo-test compound animals, a non-paired Student's t-test was used. The comparison between the number of rats seizing in both groups was performed by means of a Chi square test. For neuronal damage, statistical analysis between groups was performed using ANOVA followed by a Fisher's test for multiple comparisons using the Statview software (Fisher R A, 1946a, Statistical Methods for Research Workers (10th edition) Oliver & Boyd, Edinburgh; Fisher R A, 1946b, The Design of Experiments (4th edition) Oliver & Boyd, Edinburgh)

[2] = system: rats subjected to li-pilo SE; test: Latency to and frequency of spontaneous seizures by video recording, lithium-pilocarpine model (Example 2)
Experimental: (§1) All rats received lithium chloride (3 meq/kg, i.p., Sigma, St Louis, Mo., U.S.A.) and about 20 h later, all animals received also methylscopolamine bromide (1 mg/kg, s.c., Sigma) that was administered to limit the peripheral effects of the convulsant. SE was induced by injecting pilocarpine hydrochloride (25 mg/kg, s.c., Sigma) 30 min after methylscopolamine. The effects of increasing doses of TC (RWJ) were studied in 5 groups of rats. […] The control group received vehicle instead of pilocarpine and TC. The rats surviving SE were then injected about 10 h after the first TC injection with a second i.p. injection of 1.25 mg/kg DZP for the DZP group or of the same dose of TC as in the morning and were maintained under a twice daily TC treatment (s.c.) for 6 additional days while DZP rats received a vehicle injection.
The effects of DZP and the 4 doses of TC on epileptogenesis were investigated by daily video recording of the animals for 10 h per day. Video recording was performed for 4 weeks during which the occurrence of the first seizure was noted as well as the total number of seizures over the whole period. Animals were then taken off the video recording system and kept for 4 additional weeks in our animal facilities before they were sacrificed after a total period of 8 weeks of epilepsy.
For neuronal damage and epileptogenesis, statistical analysis between groups was performed by means of a one-way analysis of variance followed by a post-hoc Dunnett or Fisher test using the Statistica software.

[3] = system: rats subjected to li-pilo SE; test: Mortality over the first 48 h after lithium-pilocarpine SE (Example 2)
Experimental: Adult male Sprague-Dawley rats provided by Janvier Breeding Center (Le Genest-St-Isle, France) were housed under controlled, uncrowded standard conditions at 20-22° C. (light/dark cycle, 7.00 a.m.-7.00 p.m. lights on), with food and water available ad libitum. All animal experimentation was performed in accordance with the rules of the European Communities Council Directive of Nov. 24, 1986 (86/609/EEC), and the French Department of Agriculture (License No 67-97).
as §1
A total number of 143 Sprague-Dawley rats weighing 250-330 g were subjected to lithium-pilocarpine (Li-pilo)-induced SE. […] The behavioral characteristics of SE were identical in both li-pilo-DZP and li-pilo-TC groups. Within 5 min after pilocarpine injection, rats developed diarrhea, piloerection and other signs of cholinergic stimulation. […] Recurrent seizures started around 15-20 min after pilocarpine administration. These seizures which associated episodes of head and bilateral forelimb myoclonus with rearing and falling progressed to SE at about 35-40 min after pilocarpine, as previously described (Turski et al., 1989; Dube et al., 2001; Andre et al., 2003). The control group not subjected to SE and receiving lithium and saline was composed of 20 rats.

[4] = pilo-DZP compared to saline-saline rats

With `CN1C(=O)CN=C(c2ccccc2)c2cc(Cl)ccc21` [DZP, diazepam, reference compound] the “cell loss, CA1 region of the hippocampus (pyramidal cell layer)” value [1, 4] was 70% and 75%, the “cell loss, CA3a” value [1, 4] was 54% and the “cell loss, CA3b” value [1, 4] was 31%. For the same molecule, the “cell loss, dorsal entorhinal cortex layer II” value [1, 4] was 9%, the “cell loss, dorsal entorhinal cortex layers III-IV” value [1, 4] was 15% and the “cell loss, hilus of the dentate gyrus” value [1, 4] was 73%. The “cell loss, lateral thalamic nucleus” value [1, 4] was 91%, the “cell loss, mediodorsal thalamic nucleus” value [1, 4] was 56% and the “cell loss, piriform cortex layer II” value [1, 4] was 53%. The “cell loss, piriform cortex layers III-IV” value [1, 4] was “total”, the “cell loss, ventral entorhinal cortex layer II” value [1, 4] was “totally preserved” and the “cell loss, ventral entorhinal cortex layers III-IV” value [1, 4] was 44%. The “frequency of spontaneous seizures over four weeks of recording” value (shortened to “frequency … over four weeks of recording”) ([2]; DZP and TC30 groups) was “tendency to be higher”, the “Latency to the first spontaneous seizure” value ([2]; DZP, 14 animals) was 15.5 ± 2.3 days and 15.5 ± 2.34 days and the “degree of mortality over the first 48 h after SE” value ([3]; DZP 2.5 mg/kg i.m., group devoted to cell counting at 14 days, 4/11) was 36%. For the same molecule, the “degree of mortality over the first 48 h after SE” value ([3]; DZP 2.5 mg/kg i.m., group devoted to latency to SRS and late cell counting, 1/14) was 7%.

In the case of `NC(=O)OC[C@@H](O)c1ccccc1Cl` [Formula 7], the “neuroprotection compared to pilo-DZP rats, ventral entorhinal cortex layers III-IV” value ([1]; TC60 (60 mg/kg)) is reported as 31%, the “reduction of neuronal damage recorded in pilo-DZP rats, piriform cortex layer II” value ([1]; TC60 (60 mg/kg)) is reported as 41% and the “reduction of neuronal damage recorded in pilo-DZP rats, piriform cortex layers III-IV” value ([1]; TC60 (60 mg/kg)) is reported as 44%. The “more damage (worsening of cell loss) compared with pilo-DZP rats, dorsal entorhinal cortex layers III-IV” value ([1]; pilo-TC10 (10 mg/kg)) was 28%, the “more damage (worsening of cell loss) compared with pilo-DZP rats, ventral entorhinal cortex layers III-IV” value ([1]; pilo-TC10 (10 mg/kg)) was 35% and the “cell loss, CA1 pyramidal layer” value ([1]; pilo-TC30 (30 mg/kg)) was 35%. For the same molecule, the “cell loss, CA1 pyramidal layer” value ([1]; pilo-TC60 (60 mg/kg)) was 16%, the “cell loss, hilus of the dentate gyrus” value ([1]; pilo-test compound animals (10, 30, 60 mg/kg)) was 69-72% and the “reduction of neuronal damage, lateral thalamic nucleus” value ([1]; test compound 60 mg/kg) was 65%. For the same molecule, the “reduction of neuronal damage, mediodorsal thalamic nucleus” value ([1]; test compound 60 mg/kg) was 42%, the “protection in CA3b” value ([1]; test compound 60 mg/kg vs pilo-DZP) was “significantly neuroprotective” and the “protection in the CA3a area” value ([1]; test compound 10, 30, 60 mg/kg vs pilo-DZP) was “did not afford any protection”. For the same molecule, the “frequency … over four weeks of recording” value ([2]; DZP and TC30 groups) was “tendency to be higher”, the “rats with short latencies to seizures (shorter than 40 days after SE)” value (from here on “rats … (shorter than 40 days after SE)”) ([2]; TC 90 mg/kg, 4/11) was 36% and the “rats … (shorter than 40 days after SE)” value ([2]; TC 120 mg/kg, 1/9) was 11%. For the same molecule, the “latency to epilepsy of the long latency subgroup relative to the short latency” value ([2]; TC 60, 90 and 120 mg/kg, subgroup of 2-4 animals per group) was 4-6 times, the “frequency … over four weeks of recording” value ([2]; TC60, 90 and 120 groups, significant for total or mean number of seizures over the four weeks) was “lower” and the “rats … (shorter than 40 days after SE)” value ([2]; TC at 30 mg/kg (so in the source), 7/10) was 70%. The “percentage of non-epileptic rats (no seizure over 150 days post-SE)” value ([2]; at both of the two highest doses of TC (90 and 120 mg/kg)) was 45%, the “Latency to the first spontaneous seizure” value ([2]; pilo-TC30 (30 mg/kg), 8 animals, listed as TC) was 11.6 ± 2.5 days and the “Latency to the first spontaneous seizure” value ([2]; pilo-TC60 (60 mg/kg), Long latency subgroup (n = 3)) was 76.7 ± 15.6 °° days. The “Latency to the first spontaneous seizure” value ([2]; pilo-TC60 (60 mg/kg), Short latency subgroup (n = 7)) was 17.4 ± 5.4 days, the “Latency to the first spontaneous seizure” value ([2]; pilo-TC90 (90 mg/kg), Long latency subgroup (n = 2)) was 52.0 ± 1.0 ° days and the “Latency to the first spontaneous seizure” value ([2]; pilo-TC90 (90 mg/kg), Short latency subgroup (n = 4)) was 14.8 ± 5.7 days. For the same molecule, the “Latency to the first spontaneous seizure” value ([2]; pilo-TC120 (120 mg/kg), Long latency subgroup (n = 4)) was 84.5 ± 16.7 °° days, the “Latency to the first spontaneous seizure” value ([2]; pilo-TC120 (120 mg/kg), Non epileptic subgroup (n = 4), no seizure over 150 days post-SE) was 150** °° days and the “Latency to the first spontaneous seizure” value ([2]; pilo-TC120 (120 mg/kg), Short latency subgroup (n = 1)) was 13.0 days. The “degree of mortality over the first 48 h after SE” value ([3]; TC30 (30 mg/kg i.p.), group devoted to cell counting at 14 days, 4/12) was 33%, the “degree of mortality over the first 48 h after SE” value ([3]; TC30, group devoted to latency to SRS and late cell counting, 3/11) was 27% and the “degree of mortality over the first 48 h after SE” value ([3]; TC60 (60 mg/kg i.p.), group devoted to cell counting at 14 days, 1/12) was 8%. For the same molecule, the “degree of mortality over the first 48 h after SE” value ([3]; TC60, group devoted to latency to SRS and late cell counting, 0/10) was 0%, the “degree of mortality over the first 48 h after SE” value ([3]; TC90 (90 mg/kg i.p.), group devoted to cell counting at 14 days, 0/10) was 0% and the “degree of mortality over the first 48 h after SE” value ([3]; TC90, group devoted to latency to SRS and late cell counting, 0/11) was 0%. The “degree of mortality over the first 48 h after SE” value ([3]; TC120 (120 mg/kg i.p.), group devoted to cell counting at 14 days, 4/12) was 33% and the “degree of mortality over the first 48 h after SE” value ([3]; TC120, group devoted to latency to SRS and late cell counting, 0/9) was 0%.
